Each structure is given as a SMILES string.

Assay [1] can be described thus: Double-blind randomized crossover trial of montelukast and fluticasone propionate in children with asthma; FEV1 response by B2AR diplotype. It counts as in vivo, human. As to conditions: all children, 8-week treatment periods. The text has this:
(§1) Briefly, 144 children ages 6 to 17 years with mild to moderate persistent asthma were enrolled. […] Children with severe asthma were excluded. Strunk R, et al., supra. Informed consent, approved by the Institutional Review Board of the subject's respective study institution, was obtained from a parent/guardian.

Assay [2] can be described thus: Baseline methacholine challenge (PC20) by B2AR diplotype. The assay is classed as in vivo, human. The following applies: for Methacholine PC20: geometric mean (95% CI), corrected for baseline percent predicted FEV1.
Source text: as §1

The subject of assay [3] is β2-adrenergic receptor (B2AR). The following applies: cited from earlier work.

On to `CCC(=O)O[C@]1(C(=O)SCF)[C@H](C)C[C@H]2[C@@H]3C[C@H](F)C4=CC(=O)C=C[C@]4(C)[C@@]3(F)[C@@H](O)C[C@@]21C` [fluticasone, fluticasone propionate], for which the “Fraction of children with FEV1 response to fluticasone but not to montelukast” value in assay [1] is on record as “one-fourth”.
For `CC(=O)OC(C)C[N+](C)(C)C` (stereo not shown) [methacholine], the “Methacholine PC20” value was 0.6 (0.3, 1.1) mg/ml in assay [2] (4/4 diplotype, n=18) and 1.4 (1.1, 1.7) mg/ml in assay [2] (all other diplotypes, n=106). For the same compound, the “Dose of methacholine causing a 20% fall in FEV1, difference between groups” value in assay [2] (lower in the 4/4 diplotype than in the other diplotypes, adjusted for baseline percent predicted FEV1, p=0.015) is on record as 1.3 doubling doses.
For the compound `CC(C)(C)NCC(O)c1ccc(O)c(CO)c1` (stereo not shown) [albuterol], the “Immediate bronchial responses to albuterol” value in assay [3] (carriers of the Arg16 allele vs carriers of the Gly16 allele, subjects naïve to B2AR-agonists) was “higher immediate responses”. Further, the “Bronchodilator response (improvement in FEV1) to albuterol” value in assay [3] (diplotype 4/6, Drysdale et al.) is given as “highest response”. Besides, in assay [3] (homozygotes for Arg16 compared with carriers of the other two genotypes), the “Lung function on regularly scheduled albuterol” value is “significant deterioration in lung function”.

These data come from patent US20060069074A1, “Genetic predictor of efficacy of anti-asthmatic agents for improving pulmonary function” (priority 2004, published 2006).
